Experimental data as given in US20260272954A1, “ANALGESIC COMPOUNDS COMPRISING CHARGED PARTICLES AND METHOD OF MANUFACTURE THEREOF” (UNIVERSITY OF CONNECTICUT, priority 2023, published 2026).

Assay: Release of QX-314 into water through dialysis membrane (HPLC)
Assay type: physicochemical
Settings: dialysis membrane in 20 ml ultrapure water; FIG. 6
Experimental: High Performance Liquid Chromatography (HPLC) was used to assess the amount of QX-314 remaining in the supernatant after complexing with the NPs. The conditions for HPLC were as follows. The mobile phase consisted of 50 mM phosphate buffer, with 0.16% triethylamine, pH 4.0 buffer:methanol:acetonitrile=60:30:10 vol/vol/vol. The chromatographic conditions were: 30 μL of solution injected, 40° C. constant temperature, flow rate of 0.3 ml/min, and wavelength detection of 210 nm. The column used was a Supelco C18 Column 25 cm×4.6 mm.
The DPPC:PA (mass ratio=1:1) nanoparticles were complexed with QX-314 by incubating 0.5 mg of QX-314 with 1 mL of 0.25% (w/v) lipid solution in a 37° C. room on a gentle shaker. After 1 hour, the formulation was transferred to a dialysis membrane and incubated in 20 ml of ultrapure water. The amount of QX-314 released into the water was measured as a function of time using HPLC as described above. Aqueous solution of QX-314 in dialysis membrane was used as the control. A representative image of positively charged molecule (QX-314) complexed with negatively charged lipid (L-α-phosphatidic acid) is shown below.

In the case of `CC[N+](CC)(CC)CC(=O)Nc1c(C)cccc1C` [QX-314 solution, QX-314], the “burst release of QX-314 (time)” value is reported as ≤ 3 h.
